# According to US20240376094A2, “SELECTIVE BCL-XL PROTAC COMPOUNDS AND METHODS OF USE” (Les Laboratoires Servier, priority 2021, published 2024):
# Assays:
# Bcl-xL = molecular target: T1, Bcl-xL (Homo sapiens, UniProt Q07817); assay: HCT116 Bcl-xL degradation, capillary-based immunoassay (WES); assay type: cell-based; conditions: HCT116, 24 h, 9-point serial dilution
# T1 construct: Measured levels of Bcl-xL protein of HCT116 cells treated with the tested compounds; host or cells: HCT116
# Protocol: HCT116 cells were purchased from ATCC and cultivated in RPMI 1640 supplemented with 10% heat inactivated fetal bovine serum, penicillin (100 IU/mi), streptomycin (100 μg/ml) and L-glutamine (2 mM). Cells were cultured at 37° C. in a humidified atmosphere containing 5% CO2. Cells were seeded in 96 microwell plates, 24 h later cells were treated with compounds (2-point 10/100 nM and/or 9-point serial dilution to determine DC50; quadruplicates) during 24 h and harvested in lysis buffer containing 10 mM Hepes (pH 7.5), 150 mM KCl, 5 mM MgCl2, 1 mM EDTA, 0.4% TritonX100, protease and phosphatase inhibitors cocktails (Calbiochem).
# Protein concentration in the supernatants was determined using the Pierce BCA protein assay kit (Thermo Fisher Scientific). Lysates (1.5 μg/μL) were analyzed using an automated capillary electrophoresis WES system with 2-40 kDa Wes Separation Module (25 capillary cartridges, Proteinsimple), in accordance with the manufacturer's protocols. Antibodies against the following proteins were used: Bcl-xL (#2764, Cell Signaling Technology, 1:50) and cofilin (#5175, Cell Signaling Technology, 1:1000). Signals were detected with an HRP-conjugated secondary anti-rabbit antibody (#042-206, Proteinsimple) and were quantified using Compass software (version 4.0, Proteinsimple).
# Bcl-xL level was calculated by normalizing Bcl-xL values to cofilin and expressed as a percentage of the normalized value of the untreated cells. DC50 were calculated using standard four-parametric curve fitting. DC50 is defined as the compound concentration at which Bcl-xL is reduced to 50% of that measured for the control. Measured levels of Bcl-xL protein of HCT116 cells treated with the tested compounds at 2-point 10 nM/100 nM and/or 9-point for DC50 determination are shown in Table 15.
# MOLT-4 cells = assay: MOLT-4 cell viability, CTG assay; assay type: cell-based; conditions: Homo sapiens, MOLT-4, 48 h
# Source text: The MTT colorimetric assay is based on the mitochondrial reduction of tetrazolium salt by living cells. The viable cell number is proportional to the production of formazan salts, which can be read spectrophotometrically at 540 nm. The CTG luminescent assay (CellTiter GLO, Promega) is based on a reagent which lyses cells and measures total adenosine triphosphate (ATP) content. The viable cell number is proportional to the production of ATP.
# MOLT-4 cells were purchased from ATCC and cultivated in RPMI 1640 supplemented with 10% heat inactivated fetal bovine serum, penicillin (100 IU/mi), streptomycin (100 μg/ml) and L-glutamine (2 mM). Cells were cultured at 37° C. in a humidified atmosphere containing 5% […].
# For CTG assay, cells were seeded in 384 microwell plates (40 μL per well) and exposed to the compounds for 48 h (11-point serial dilution with 5-fold factor, triplicates). At the end of incubation time, 40 μL of CTG solution were added per well. Wells were mixed thoroughly, and plates were incubated at room temperature for 10 minutes to stabilize luminescent signals prior to reading using a luminescence reader (PHERAStar FSX Reader, BMG Labtech).
# IC50, were calculated using standard four-parametric curve fitting. IC50 is defined as the compound concentration at which the MTT or CTG signal is reduced to 50% of that measured for the control. Results shown in Table 14 represent the mean of at least 2 independent experiments.
# T1 sequence (Q07817 whole entry): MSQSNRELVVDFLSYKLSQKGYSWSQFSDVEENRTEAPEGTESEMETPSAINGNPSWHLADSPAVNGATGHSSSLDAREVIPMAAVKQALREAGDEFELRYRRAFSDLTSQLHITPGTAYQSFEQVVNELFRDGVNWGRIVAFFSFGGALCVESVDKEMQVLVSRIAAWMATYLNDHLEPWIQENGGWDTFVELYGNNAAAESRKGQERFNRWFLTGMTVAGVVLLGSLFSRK
SMILES,DC50 (Bcl-xL),IC50 (MOLT-4 cells)
"Cc1c(Nc2nc3ccccc3s2)nnc2c1CCCN2c1ccc(-c2cnn(CC34CC5(C)CC(C)(C3)CC(OCCN(C)CCCCCCCCCCCCCCCCOc3ccc6c(c3)C(=O)N(C3CCC(=O)NC3=O)C6=O)(C5)C4)c2C)c(C(=O)O)n1 (centres unmarked) [Example 147, 6-[3-(1,3-benzothiazol-2-ylamino)-4-methyl-6,7-dihydro-5H-pyrido[2,3-c]pyridazin-8-yl]-3-[1-[[3-[2-[16-[2-(2,6-dioxo-3-piperidyl)-1,3-dioxo-isoindolin-5-yl]oxyhexadecyl-methyl-amino]ethoxy]-5,7-dimethyl-1-adamantyl]methyl]-5-methyl-pyrazol-4-yl]pyridine-2-carboxylic acid]",> 316 nM,5.34 nM
"CN[C@@H](C)C(=O)N[C@H](C(=O)N1CCC[C@H]1c1nc(C(=O)c2cccc(OCCCCCCCCCCCCCCN(C)CCOC34CC5(C)CC(C)(CC(Cn6ncc(-c7ccc(N8CCCc9c8nnc(Nc8nc%10ccccc%10s8)c9C)nc7C(=O)O)c6C)(C5)C3)C4)c2)cs1)C1CCCCC1 [Example 100, 6-[3-(1,3-benzothiazol-2-ylamino)-4-methyl-6,7-dihydro-5H-pyrido[2,3-c]pyridazin-8-yl]-3-[1-[[3-[2-[14-[3-[2-[(2S)-1-[(2S)-2-cyclohexyl-2-[[(2S)-2-(methylamino)propanoyl]amino]acetyl]pyrrolidin-2-yl]thiazole-4-carbonyl]phenoxy]tetradecyl-methyl-amino]ethoxy]-5,7-dimethyl-1-adamantyl]methyl]-5-methyl-pyrazol-4-yl]pyridine-2-carboxylic acid]",–,8.41 nM
"CN[C@@H](C)C(=O)N[C@H](C(=O)N1CCC[C@H]1c1nc(C(=O)c2cccc(OCCCCCCN(C)CCOC34CC5(C)CC(C)(CC(Cn6ncc(-c7ccc(N8CCCc9c8nnc(Nc8nc%10ccccc%10s8)c9C)nc7C(=O)O)c6C)(C5)C3)C4)c2)cs1)C1CCCCC1 [Example 102, 6-[3-(1,3-benzothiazol-2-ylamino)-4-methyl-6,7-dihydro-5H-pyrido[2,3-c]pyridazin-8-yl]-3-[1-[[3-[2-[6-[3-[2-[(2S)-1-[(2S)-2-cyclohexyl-2-[[(2S)-2-(methylamino)propanoyl]amino]acetyl]pyrrolidin-2-yl]thiazole-4-carbonyl]phenoxy]hexyl-methyl-amino]ethoxy]-5,7-dimethyl-1-adamantyl]methyl]-5-methyl-pyrazol-4-yl]pyridine-2-carboxylic acid]",0.448 nM,4.07 nM
"Cc1cc(N(CCCCN(C)C(=O)CCCCCCCCCCCNc2cccc3c2C(=O)N(C2CCC(=O)NC2=O)C3=O)c2ccc(-c3cnn(CC45CC6(C)CC(C)(C4)CC(OCCN(C)C)(C6)C5)c3C)c(C(=O)O)n2)nnc1Nc1nc2ccccc2s1 (centres unmarked) [Example 93, 6-[[6-(1,3-benzothiazol-2-ylamino)-5-methyl-pyridazin-3-yl]-[4-[12-[[2-(2,6-dioxo-3-piperidyl)-1,3-dioxo-isoindolin-4-yl]amino]dodecanoyl-methyl-amino]butyl]amino]-3-[1-[[3-[2-(dimethylamino)ethoxy]-5,7-dimethyl-1-adamantyl]methyl]-5-methyl-pyrazol-4-yl]pyridine-2-carboxylic acid]",0.951 nM,19.6 nM
"Cc1c(Nc2nc3ccccc3s2)nnc2c1CCCN2c1ccc(-c2cnn(CC34CC5(C)CC(C)(C3)CC(OCCN(C)CCCCCCCCCCCOc3ccc6c(c3)C(=O)N(C3CCC(=O)NC3=O)C6=O)(C5)C4)c2C)c(C(=O)O)n1 (centres unmarked) [Example 105, 6-[3-(1,3-benzothiazol-2-ylamino)-4-methyl-6,7-dihydro-5H-pyrido[2,3-c]pyridazin-8-yl]-3-[1-[[3-[2-[11-[2-(2,6-dioxo-3-piperidyl)-1,3-dioxo-isoindolin-5-yl]oxyundecyl-methyl-amino]ethoxy]-5,7-dimethyl-1-adamantyl]methyl]-5-methyl-pyrazol-4-yl]pyridine-2-carboxylic acid]",0.0447 nM,1.75 nM
"Cc1cc(N(CCCCN(C)C(=O)CCCCCCCCCNc2cccc3c2C(=O)N(C2CCC(=O)NC2=O)C3=O)c2ccc(-c3cnn(CC45CC6(C)CC(C)(C4)CC(OCCN(C)C)(C6)C5)c3C)c(C(=O)O)n2)nnc1Nc1nc2ccccc2s1 (centres unmarked) [Example 92, 6-[[6-(1,3-benzothiazol-2-ylamino)-5-methyl-pyridazin-3-yl]-[4-[10-[[2-(2,6-dioxo-3-piperidyl)-1,3-dioxo-isoindolin-4-yl]amino]decanoyl-methyl-amino]butyl]amino]-3-[1-[[3-[2-(dimethylamino)ethoxy]-5,7-dimethyl-1-adamantyl]methyl]-5-methyl-pyrazol-4-yl]pyridine-2-carboxylic acid]",0.954 nM,14.9 nM
"CN[C@@H](C)C(=O)N[C@H](C(=O)N1CCC[C@H]1c1nc(C(=O)c2cccc(OCCCCN(C)CCOC34CC5(C)CC(C)(CC(Cn6ncc(-c7ccc(N8CCCc9c8nnc(Nc8nc%10ccccc%10s8)c9C)nc7C(=O)O)c6C)(C5)C3)C4)c2)cs1)C1CCCCC1 [Example 99, 6-[3-(1,3-benzothiazol-2-ylamino)-4-methyl-6,7-dihydro-5H-pyrido[2,3-c]pyridazin-8-yl]-3-[1-[[3-[2-[4-[3-[2-[(2S)-1-[(2S)-2-cyclohexyl-2-[[(2S)-2-(methylamino)propanoyl]amino]acetyl]pyrrolidin-2-yl]thiazole-4-carbonyl]phenoxy]butyl-methyl-amino]ethoxy]-5,7-dimethyl-1-adamantyl]methyl]-5-methyl-pyrazol-4-yl]pyridine-2-carboxylic acid]",–,4.54 nM
"Cc1c(Nc2nc3ccccc3s2)nnc2c1CCCN2c1ccc(-c2cnn(CC34CC5(C)CC(C)(C3)CC(OCCN(C)CCCCCCCCCCC(=O)N3CCC(c6ccc7c(c6)CN(C6CCC(=O)NC6=O)C7=O)CC3)(C5)C4)c2C)c(C(=O)O)n1 (centres unmarked) [Example 75, 6-[3-(1,3-benzothiazol-2-ylamino)-4-methyl-6,7-dihydro-5H-pyrido[2,3-c]pyridazin-8-yl]-3-[1-[[3-[2-[[11-[4-[2-(2,6-dioxo-3-piperidyl)-1-oxo-isoindolin-5-yl]-1-piperidyl]-11-oxo-undecyl]-methyl-amino]ethoxy]-5,7-dimethyl-1-adamantyl]methyl]-5-methyl-pyrazol-4-yl]pyridine-2-carboxylic acid]",–,5.85 nM
"Cc1c(Nc2nc3ccccc3s2)nnc2c1CCCN2c1ccc(-c2cnn(CC34CC5(C)CC(C)(C3)CC(OCCN(C)CCCCCCCCCCCCCCCC(=O)N3CCC(c6ccc7c(c6)CN(C6CCC(=O)NC6=O)C7=O)CC3)(C5)C4)c2C)c(C(=O)O)n1 (centres unmarked) [Example 74, 6-[3-(1,3-benzothiazol-2-ylamino)-4-methyl-6,7-dihydro-5H-pyrido[2,3-c]pyridazin-8-yl]-3-[1-[[3-[2-[[16-[4-[2-(2,6-dioxo-3-piperidyl)-1-oxo-isoindolin-5-yl]-1-piperidyl]-16-oxo-hexadecyl]-methyl-amino]ethoxy]-5,7-dimethyl-1-adamantyl]methyl]-5-methyl-pyrazol-4-yl]pyridine-2-carboxylic acid]",0.133 nM,–
